Data taken from PubChem BioAssay (NCI).
“And” between values parts separate entries of the source, which are not always exact repeats. Equal entries are not always repeated.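 Method: 48-hour compound exposure of cells in 96-well plates, five concentrations, linear interpolation of endpoints. Abbreviation: GI50, concentration required for 50% inhibition of growth. TGI: concentration producing complete growth inhibition.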

Tests used:
Assay in all cases: DTP human tumour cell line panel, 48 h
OVCAR-3 ovarian = system: OVCAR-3 ovarian
SK-MEL-28 melanoma = system: SK-MEL-28 melanoma
NCI-H23 lung = system: NCI-H23 lung
HL-60(TB) leukemia = system: HL-60(TB) leukemia
CCRF-CEM leukemia = system: CCRF-CEM leukemia
CAKI-1 renal = system: CAKI-1 renal
SNB-75 CNS = system: SNB-75 CNS
MALME-3M melanoma = system: MALME-3M melanoma
OVCAR-5 ovarian = system: OVCAR-5 ovarian
UACC-257 melanoma = system: UACC-257 melanoma

Row | Compound | TGI (OVCAR-3 ovarian) [µM] | TGI (SK-MEL-28 melanoma) [µM] | GI50 (NCI-H23 lung) [µM] | TGI (NCI-H23 lung) | GI50 (HL-60(TB) leukemia) [µM] | TGI (HL-60(TB) leukemia) [µM] | TGI (CCRF-CEM leukemia) | TGI (CAKI-1 renal) [µM] | TGI (SNB-75 CNS) [µM] | TGI (MALME-3M melanoma) [µM] | GI50 (OVCAR-5 ovarian) [µM] | TGI (OVCAR-5 ovarian) [µM] | TGI (UACC-257 melanoma) [µM] | GI50 (OVCAR-3 ovarian) [µM] | GI50 (SK-MEL-28 melanoma) [µM] | GI50 (CCRF-CEM leukemia) [µM] | GI50 (CAKI-1 renal) [µM] | GI50 (SNB-75 CNS) [µM] | GI50 (MALME-3M melanoma) [µM] | GI50 (UACC-257 melanoma) [µM]
1 | CN(C)CCCCCNc1c2ccccc2nc2cccc([N+](=O)[O-])c12 | 0.00504 | 0.0113 | 0.00162 | 0.00344 µM and 0.00234 µM | 0.00266 | > 0.1 | > 0.1 µM and 0.0102 µM | 0.0158 | 0.00534 | 0.00506 | 0.00264 | 0.0115 | > 0.0231 | – | – | – | – | – | – | –
2 | CCc1nc2cc(/C=C/C(=O)NO)ccc2c(=O)n1CCc1ccc(OC)cc1 | 7.19 | 15.1 | 2.4 | 7.89 µM | 3.47 | > 100 | > 100 µM | 10.7 | 33.2 | 8.28 | 2.5 | 30 | 9.33 | 2.03 | 3.31 | 3.17 | 2.98 | 2.62 | 1.53 | 2.93
3 | CCn1c(=N)sc2nc3ccccc3n2c1=O | > 100 | > 100 | – | > 100 µM | – | > 100 | > 100 µM | > 100 | > 100 | > 100 | – | > 100 | > 100 | – | – | – | – | – | – | –
4 | O=C(Nc1ccc2c(c1)OCCO2)C(=O)c1c[nH]c2ccccc12 | 4.68 | > 100 | 1.44 | 26.7 µM | 1.21 | > 32.9 | > 100 µM | > 100 | 5.96 | > 100 | 3.47 | > 100 | > 100 | 1.29 | 5.6 | 1.08 | 1.68 | 1.33 | 10.5 | > 23.5
5 | CC12OC(C(=O)C13CCC3)C1C(=O)c3ccc4c(ccc5ccccc54)c3C(=O)C12 (configuration not stated) | 2.47 | > 100 | 10.5 | 23.6 µM | 5.15 | 43.7 | 15.2 µM | 12.7 | 37.7 | 17.2 | 17.8 | 33.9 | 39.3 | 0.388 | 36.1 | 2.99 | 1.42 | 18.1 | 4.2 | 10.7
6 | C=C(CN1c2ccccc2Sc2ccccc21)c1ccc(C(=O)Nc2ccccc2N)cc1 | > 100 | > 100 | > 100 | > 100 µM | 0.184 | > 100 | – | > 50.2 | > 100 | > 100 | > 100 | > 100 | > 100 | 8.08 | 43.5 | 0.101 | 8.83 | 15.8 | > 23 | 67.6
7 | CC[C@@H](O)C[C@H]1CCC[C@@]2(C[C@@H]3OC(=O)/C=C/[C@@](C)(O)[C@@H](O)[C@H](C)[C@@H](O)[C@H](OC4CCC(N(C)C)C(C)O4)[C@@H](O)[C@](C)(O)CCCCC/C=C/[C@@H]4CC(C)(C)O[C@@]4(O)C[C@H](O2)[C@H]3C)O1 (some centres not stated) | 25.5 | 36.8 | – | 18.2 µM | – | > 39.8 | > 100 µM | 20.2 | 21.5 | 15.5 | – | 28.1 | 4.82 | – | – | – | – | – | – | –
8 | CCOC(=O)C#Cc1c(C(=O)OCC)nnn1[C@@H]1O[C@H](CO)[C@H]2OC3(CCCCC3)O[C@H]21 | 3.21 | 4.51 | 10.1 | 28.4 µM | 1.87 | 5.88 | 4.85 µM | 3.31 | 24.2 | 3.76 | 8.09 | 22.6 | 7.52 | 1.7 | 2.06 | 1.62 | 1.76 | 11.5 | 1.87 | 2.93
9 | CCC(C)(O)c1cn(-c2ccc(S(=O)(=O)O)cc2)nn1 (configuration not stated) | > 100 | > 100 | – | > 100 µM | – | > 100 | > 100 µM | > 100 | > 100 | > 100 | – | > 100 | > 100 | – | – | – | – | – | – | –
10 | COC(=O)CCC(=O)N1CC1C (configuration not stated) | > 100 | > 100 | – | > 100 µM | – | > 100 | > 100 µM | > 100 | > 100 | > 100 | – | > 100 | > 100 | – | – | – | – | – | – | –
11 | Cc1noc(C)c1-c1cnc2c(-c3ccc(C(=O)O)cc3)cn([C@@H](C)c3ccccn3)c2c1 | 32.1 | > 100 | 3.32 | > 100 µM | 0.253 | > 100 | > 100 µM | > 83.6 | 2.47 | > 100 | 4.22 | > 100 | > 100 | 0.959 | 5.44 | 2.73 | 0.0745 | 0.0376 | 0.635 | 1.62
